Numbered stars: 1 amine (or outer) side, 2 acyl side, 3 side chain; on linkers, the order of the positions; unused ones are H or OH. Square brackets hold non-standard residues; d marks the D form. Peptide text beside a SMILES is read from it. * marks the point of attachment. ξ: configuration not given here. Arachidoyl = CCCCCCCCCCCCCCCCCCCC(=O)*; C15 diacid = O=C(O)CCCCCCCCCCCCCC(=O)*; Pentanoyl(5-Ph) = O=C(CCCCc1ccccc1)*; C12 diacid = O=C(O)CCCCCCCCCCC(=O)*; Glutaryl = O=C(CCCC(=O)[*:2])[*:1]; Decanoyl = CCCCCCCCCC(=O)*; ξR = N=C(N)NCCCC(N)C(=O)O; Propionyl = CCC(=O)*; Butyryl = CCCC(=O)* Where only a bound is given, the exact number is not on record here.

One assay concerns the target T1, Tyrosine-protein phosphatase non-receptor type 1 (Homo sapiens) (UniProt P18031).
T1 sequence (whole entry): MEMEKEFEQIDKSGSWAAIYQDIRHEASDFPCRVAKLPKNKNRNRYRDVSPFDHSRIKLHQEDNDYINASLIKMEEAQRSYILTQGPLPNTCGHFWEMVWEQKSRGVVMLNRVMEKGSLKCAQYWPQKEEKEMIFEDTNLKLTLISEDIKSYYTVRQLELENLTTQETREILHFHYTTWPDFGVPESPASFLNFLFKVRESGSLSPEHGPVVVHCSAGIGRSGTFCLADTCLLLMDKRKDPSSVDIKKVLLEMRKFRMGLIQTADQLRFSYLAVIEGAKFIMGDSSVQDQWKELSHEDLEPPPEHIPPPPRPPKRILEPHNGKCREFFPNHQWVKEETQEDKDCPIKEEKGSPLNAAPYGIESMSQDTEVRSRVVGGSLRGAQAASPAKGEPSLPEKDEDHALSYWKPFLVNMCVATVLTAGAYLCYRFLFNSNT
Nature of the assay: Inhibition of N-terminal His tagged recombinant human PTP1B expressed in Escherichia coli using pNPP as substrate assessed as substrate hydrolysis at 40 umol/L relative to control. The note with it: dose 40.0 µmol/L.
As a reminder, the inhibition is the share of the control response that was lost under treatment. Take `CC[C@H](C)[C@H](NC(=O)CCCCCCCCCCCCCC(=O)O)C(=O)N[C@@H](C)C(=O)N[C@@H](CCC(N)=O)C(=O)N[C@@H](CCC(=O)O)C(=O)N[C@@H](CC(C)C)C(=O)N[C@@H](CCCNC(=N)N)C(=O)N[C@@H](CCCNC(=N)N)C(=O)N[C@H](C(=O)NCC(=O)N[C@@H](CC(=O)O)C(=O)N[C@@H](CCC(=O)O)C(=O)N[C@@H](Cc1ccccc1)C(=O)O)[C@@H](C)CC` ({C15 diacid}-IAQELRRIGDEF-OH): the inhibition is above 50%.

For the compound `CCCCCCCCCC(=O)N[C@H](C(=O)N[C@@H](C)C(=O)N[C@@H](CCC(N)=O)C(=O)N[C@@H](CCC(=O)O)C(=O)N[C@@H](CC(C)C)C(=O)N[C@@H](CCCNC(=N)N)C(=O)N[C@@H](CCCNC(=N)N)C(=O)N[C@H](C(=O)NCC(=O)N[C@@H](CC(=O)O)C(=O)N[C@@H](CCC(=O)O)C(=O)N[C@@H](Cc1ccccc1)C(=O)O)[C@@H](C)CC)[C@@H](C)CC` (Decanoyl-IAQELRRIGDEF-OH), the inhibition is above 50%.

With `CC[C@H](C)[C@H](NC(=O)CCCCc1ccccc1)C(=O)N[C@@H](C)C(=O)N[C@@H](CCC(N)=O)C(=O)N[C@@H](CCC(=O)O)C(=O)N[C@@H](CC(C)C)C(=O)N[C@@H](CCCNC(=N)N)C(=O)N[C@@H](CCCNC(=N)N)C(=O)N[C@H](C(=O)NCC(=O)N[C@@H](CC(=O)O)C(=O)N[C@@H](CCC(=O)O)C(=O)N[C@@H](Cc1ccccc1)C(=O)O)[C@@H](C)CC` ({Pentanoyl(5-Ph)}-IAQELRRIGDEF-OH), the inhibition is below 50%.

Turning to `CCCCCCCCCCCCCCCCCCCC(=O)N[C@H](C(=O)N[C@@H](C)C(=O)N[C@@H](CCC(N)=O)C(=O)N[C@@H](CCC(=O)O)C(=O)N[C@@H](CC(C)C)C(=O)N[C@@H](CCCNC(=N)N)C(=O)NC(CCCNC(=N)N)C(=O)N[C@H](C(=O)NCC(=O)N[C@@H](CC(=O)O)C(=O)N[C@@H](CCC(=O)O)C(=O)N[C@@H](Cc1ccccc1)C(=O)O)[C@@H](C)CC)[C@@H](C)CC` (stereo partly drawn) (Arachidoyl-IAQELR[ξR]IGDEF-OH), the inhibition is above 50%.

With `CC[C@H](C)[C@H](NC(=O)CCCCCCCCC(=O)O)C(=O)N[C@@H](C)C(=O)N[C@@H](CCC(N)=O)C(=O)N[C@@H](CCC(=O)O)C(=O)N[C@@H](CC(C)C)C(=O)N[C@@H](CCCNC(=N)N)C(=O)N[C@@H](CCCNC(=N)N)C(=O)N[C@H](C(=O)NCC(=O)N[C@H](CC(=O)O)C(=O)N[C@@H](CCC(=O)O)C(=O)N[C@@H](Cc1ccccc1)C(=O)O)[C@@H](C)CC`, the inhibition is below 50%.

As for `CCCC(=O)N[C@H](C(=O)N[C@@H](C)C(=O)N[C@@H](CCC(N)=O)C(=O)N[C@@H](CCC(=O)O)C(=O)N[C@@H](CC(C)C)C(=O)N[C@@H](CCCNC(=N)N)C(=O)N[C@@H](CCCNC(=N)N)C(=O)N[C@H](C(=O)NCC(=O)N[C@@H](CC(=O)O)C(=O)N[C@@H](CCC(=O)O)C(=O)N[C@@H](Cc1ccccc1)C(=O)O)[C@@H](C)CC)[C@@H](C)CC` (Butyryl-IAQELRRIGDEF-OH), the inhibition is below 50%.

Take `CC[C@H](C)[C@H](NC(=O)CCCC(=O)O)C(=O)N[C@@H](C)C(=O)N[C@@H](CCC(N)=O)C(=O)N[C@@H](CCC(=O)O)C(=O)N[C@@H](CC(C)C)C(=O)N[C@@H](CCCNC(=N)N)C(=O)N[C@@H](CCCNC(=N)N)C(=O)N[C@H](C(=O)NCC(=O)N[C@@H](CC(=O)O)C(=O)N[C@@H](CCC(=O)O)C(=O)N[C@@H](Cc1ccccc1)C(=O)O)[C@@H](C)CC` (Glutaryl-IAQELRRIGDEF-OH): the inhibition was below 50%.

Turning to `CCC(=O)N[C@H](C(=O)N[C@@H](C)C(=O)N[C@@H](CCC(N)=O)C(=O)N[C@@H](CCC(=O)O)C(=O)N[C@@H](CC(C)C)C(=O)N[C@@H](CCCNC(=N)N)C(=O)N[C@@H](CCCNC(=N)N)C(=O)N[C@H](C(=O)NCC(=O)N[C@@H](CC(=O)O)C(=O)N[C@@H](CCC(=O)O)C(=O)N[C@@H](Cc1ccccc1)C(=O)O)[C@@H](C)CC)[C@@H](C)CC` (Propionyl-IAQELRRIGDEF-OH), the inhibition is below 50%.

Take Ac-IAQELRRIGDEF-OH: the inhibition was below 50%.

Turning to `CC[C@H](C)[C@H](NC(=O)CCCCCCCCCCC(=O)O)C(=O)N[C@@H](C)C(=O)N[C@@H](CCC(N)=O)C(=O)N[C@@H](CCC(=O)O)C(=O)N[C@@H](CC(C)C)C(=O)N[C@@H](CCCNC(=N)N)C(=O)N[C@@H](CCCNC(=N)N)C(=O)N[C@H](C(=O)NCC(=O)N[C@@H](CC(=O)O)C(=O)N[C@@H](CCC(=O)O)C(=O)N[C@@H](Cc1ccccc1)C(=O)O)[C@@H](C)CC` ({C12 diacid}-IAQELRRIGDEF-OH), the inhibition was below 50%.

In a further assay the target is T2, Tyrosine-protein phosphatase non-receptor type 1 (Homo sapiens, UniProt P18031).
T2 sequence (P18031 whole entry): T1 sequence (whole entry)
Nature of the assay: Inhibition of N-terminal His tagged recombinant human PTP1B expressed in Escherichia coli using pNPP as substrate assessed as substrate hydrolysis.
Conditions: not given
In general, IC50 refers to the concentration that gives 50% inhibition. On to `CC[C@H](C)[C@H](NC(=O)CCCCCCCCCCCCCC(=O)O)C(=O)N[C@@H](C)C(=O)N[C@@H](CCC(N)=O)C(=O)N[C@@H](CCC(=O)O)C(=O)N[C@@H](CC(C)C)C(=O)N[C@@H](CCCNC(=N)N)C(=O)N[C@@H](CCCNC(=N)N)C(=O)N[C@H](C(=O)NCC(=O)N[C@@H](CC(=O)O)C(=O)N[C@@H](CCC(=O)O)C(=O)N[C@@H](Cc1ccccc1)C(=O)O)[C@@H](C)CC` ({C15 diacid}-IAQELRRIGDEF-OH), for which the 50% inhibitory concentration (IC50) is 1540 nM.

Consider `CCCCCCCCCC(=O)N[C@H](C(=O)N[C@@H](C)C(=O)N[C@@H](CCC(N)=O)C(=O)N[C@@H](CCC(=O)O)C(=O)N[C@@H](CC(C)C)C(=O)N[C@@H](CCCNC(=N)N)C(=O)N[C@@H](CCCNC(=N)N)C(=O)N[C@H](C(=O)NCC(=O)N[C@@H](CC(=O)O)C(=O)N[C@@H](CCC(=O)O)C(=O)N[C@@H](Cc1ccccc1)C(=O)O)[C@@H](C)CC)[C@@H](C)CC` (Decanoyl-IAQELRRIGDEF-OH), for which the IC50 amounted to 2140 nM.

Consider `CCCCCCCCCCCCCCCCCCCC(=O)N[C@H](C(=O)N[C@@H](C)C(=O)N[C@@H](CCC(N)=O)C(=O)N[C@@H](CCC(=O)O)C(=O)N[C@@H](CC(C)C)C(=O)N[C@@H](CCCNC(=N)N)C(=O)NC(CCCNC(=N)N)C(=O)N[C@H](C(=O)NCC(=O)N[C@@H](CC(=O)O)C(=O)N[C@@H](CCC(=O)O)C(=O)N[C@@H](Cc1ccccc1)C(=O)O)[C@@H](C)CC)[C@@H](C)CC` (stereo partly drawn) (Arachidoyl-IAQELR[ξR]IGDEF-OH), for which the IC50 turned out to be 3890 nM.

(Values after ChEMBL document CHEMBL5316338, “Discovery of Novel PTP1B Inhibitors with Once-Weekly Therapeutic Potential for Type 2 Diabetes: Design, Synthesis, and In Vitro and In Vivo Investigations of BimBH3 Peptide Analogues” (J Med Chem, 2023).)
